Structures are written as SMILES. Like-named read-outs stand apart in the source and are kept apart here.

We go through 13 compounds from US12606533B2, “3-phenylpropylamine derivative” (DAIICHI SANKYO COMPANY, LIMITED, priority 2023, dated 2026).

Assay [1] has as its target T1, SF-1 (Homo sapiens, UniProt Q13285).
T1 construct: NCI-H295R SF-1-HiBiT cells with HiBiT tag knocked in at the endogenous SF1 locus; host or cells: NCI-H295R SF-1-HiBiT (knock-in at endogenous locus)
The assay is described as follows: SF1 degradation induction in NCI-H295R SF-1-HiBiT cells (HiBiT DC50). The settings on record: 24 hr, concentration that induces 50% degradation of SF-1. Type of assay: cell-based. In outline: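 NCI-H295R cells carrying HiBiT-tagged SF-1, plated and grown 24 hr, then exposed to serially diluted compounds for 24 hr at 37° C. Remaining SF-1 read by lytic HiBiT luminescence; degradation rate from treated vs compound-free signal, DC50 as concentration giving 50% degradation.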

The subject of assay [2] is NCI-H295R cells. Put plainly: Proliferation inhibitory action on NCI-H295R (CellTiter-Glo, 7 days). Type of assay: cell-based, human. The procedure, abridged:
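Compounds serially diluted in DMSO; cells seeded at 2×10^3 cells/well and cultured 7 days at 37° C, 5% CO2. CellTiter-Glo 2.0 luminescence read at day 0 and day 7; proliferation rate derived from compound-addition-day signal, untreated day-7 signal and treated day-7 signal.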
A general note: Cellular ATP, detected with luciferase, serves as a proxy for viable cell number.

With `COc1ccc(C2(CCN(Cc3ccc(OC4CCN(CC(=O)Nc5cccc6c5n(C)c(=O)n6C5CCC(=O)NC5=O)CC4)cc3)CC(C)(C)C(F)(F)F)CCOCC2)cc1` (centres unmarked) [Example AC6, N-[1-(2,6-Dioxopiperidin-3-yl)-3-methyl-2-oxo-2,3-dihydro-1H-benzimidazol-4-yl]-2-[4-(4-{[{2-[4-(4-methoxyphenyl)tetrahydro-2H-pyran-4-yl]ethyl}(3,3,3-trifluoro-2,2-dimethylpropyl)amino]methyl}phenoxy)piperidin-1-yl]acetamide], the DC50 – broadly, the midpoint of the concentration-degradation curve – in assay [1] was 26 nM. The GI50 (as a rule, the concentration at which growth is held to half of that of the control) in assay [2] (Homo sapiens, NCI-H295R, 168 h) was found to be 73 nM.

`COc1ccc([C@]2(CCN(Cc3ccc(C4=CC[C@H](C(=O)N5C6COCC5CC(Nc5ccc7c8c5CCCn8c(=O)n7C5CCC(=O)NC5=O)C6)CC4)c(F)c3)CC(C)(C)C(F)(F)F)CCOC(C)(C)C2)cc1` (stereo partly drawn) [CC3, 3-[7-{[(7-Exo)-9-{[(4R)-2′-fluoro-4′-{[{2-[(4R)-4-(4-methoxyphenyl)-2,2-dimethyltetrahydro-2H-pyran-4-yl]ethyl)(3,3,3-trifluoro-2,2-dimethylpropyl)amino]methyl}-2,3,4,5-tetrahydro[biphenyl]-4-yl]carbonyl}-3-oxa-9-azabicyclo[3.3.1]nonan-7-yl]amino}-2-oxo-5,6-dihydro-4H-imidazo[4,5,1-ij]quinolin-1(2H)-yl]piperidine-2,6-dione] registered a DC50 in assay [1] of 4.9 nM. The compound further registered a GI50 in assay [2] (Homo sapiens, NCI-H295R, 168 h) of 36 nM.

`COc1ccc([C@]2(CCN(Cc3ccc([C@H]4CC[C@@H](CN5CCN(C(=O)c6ccc7c(c6)n(C)c(=O)n7C6CCC(=O)NC6=O)CC5)CC4)cc3)CC(C)(C)C(F)(F)F)CCOC(C)(C)C2)cc1` (stereo partly drawn) [Example AI11, 3-{5-[(4-{[Cis-4-(4-{[{2-[(4R)-4-(4-methoxyphenyl)-2,2-dimethyltetrahydro-2H-pyran-4-yl]ethyl}(3,3,3-trifluoro-2,2-dimethylpropyl)amino]methyl}phenyl)cyclohexyl]methyl}piperazin-1-yl)carbonyl]-3-methyl-2-oxo-2,3-dihydro-1H-benzimidazol-1-yl}piperidine-2,6-dione] gave a 50% degradation concentration (DC50) in assay [1] of 6.2 nM. This compound also showed a GI50 in assay [2] (Homo sapiens, NCI-H295R, 168 h) of 90 nM.

With `COc1ccc([C@]2(CCN(Cc3ccc(C4=CCC(CN5CCN(C(=O)c6ccc7c(c6)CN(C6CCC(=O)NC6=O)C7=O)CC5)CC4)cc3)CC(C)(C)C(F)(F)F)CCOC(C)(C)C2)cc1` (stereo partly drawn) [Example AG7, 3-[5-({4-[(4′-{[{2-[(4R)-4-(4-Methoxyphenyl)-2,2-dimethyltetrahydro-2H-pyran-4-yl]ethyl}(3,3,3-trifluoro-2,2-dimethylpropyl)amino]methyl}-2,3,4,5-tetrahydro[biphenyl]-4-yl)methyl]piperazin-1-yl}carbonyl)-1-oxo-1,3-dihydro-2H-isoindol-2-yl]piperidine-2,6-dione], half-maximal degradation in assay [1] (DC50) was put at 8.7 nM. In assay [2] (Homo sapiens, NCI-H295R, 168 h), this compound displayed a GI50 of 147 nM.

The compound `COc1ccc([C@]2(CCN(Cc3ccc(C4=CC[C@H](C(=O)N5CCC(Nc6ccc7c8c6OCCn8c(=O)n7C6CCC(=O)NC6=O)CC5)CC4)c(F)c3)CC(C)(C)C(F)(F)F)CCOC(C)(C)C2)cc1` (stereo partly drawn) [BM10, 3-{7-[(1-{[(4R)-2′-Fluoro-4′-{[{2-[(4R)-4-(4-methoxyphenyl)-2,2-dimethyltetrahydro-2H-pyran-4-yl]ethyl)(3,3,3-trifluoro-2,2-dimethylpropyl)amino]methyl}-2,3,4,5-tetrahydro[biphenyl]-4-yl]carbonyl}piperidin-4-yl)amino]-2-oxo-4,5-dihydroimidazo[1,5,4-de][1,4]benzoxazin-1(2H)-yl}piperidine-2,6-dione] showed a DC50 in assay [1] of 2.2 nM. In assay [2] (Homo sapiens, NCI-H295R, 168 h), this compound displayed a GI50 of 22 nM.

For the compound `COc1ccc([C@]2(CCN(Cc3ccc(-c4cccc(CC(=O)NCCNc5ccc6c(c5)n(C)c(=O)n6C5CCC(=O)NC5=O)c4)cc3)CC(C)(C)C(F)(F)F)CCOC(C)(C)C2)cc1` (stereo partly drawn) [Example AA4, N-(2-{[1-(2,6-Dioxopiperidin-3-yl)-3-methyl-2-oxo-2,3-dihydro-1H-benzimidazol-5-yl]amino}ethyl)-2-(4′-{[{2-[(4R)-4-(4-methoxyphenyl)-2,2-dimethyltetrahydro-2H-pyran-4-yl]ethyl)(3,3,3-trifluoro-2,2-dimethylpropyl)amino]methyl}[biphenyl]-3-yl)acetamide], the DC50 in assay [1] is 12 nM. Moreover, growth in assay [2] (Homo sapiens, NCI-H295R, 168 h) was halved (GI50) at 488 nM.

Regarding `COc1ccc([C@]2(CCN(Cc3ccc(C4=CC[C@H](C(=O)N5CCC(Nc6ccc7c8c6CCCn8c(=O)n7C6CCC(=O)NC6=O)CC5)CC4)c(F)c3)CC(C)(C)C(F)(F)F)CCOC(C)(C)C2)cc1` (single isomer, unassigned) [CH1, (3S) or (3R)-{7-[(1-{[(4R)-2′-Fluoro-4′-{[{2-[(4R)-4-(4-methoxyphenyl)-2,2-dimethyltetrahydro-2H-pyran-4-yl]ethyl}(3,3,3-trifluoro-2,2-dimethylpropyl)amino]methyl}-2,3,4,5-tetrahydro[biphenyl]-4-yl]carbonyl}piperidin-4-yl)amino]-2-oxo-5,6-dihydro-4H-imidazo[4,5,1-ij]quinolin-1(2H)-yl}piperidine-2,6-dione], in assay [1], the DC50 came to 2.8 nM. Further, the GI50 in assay [2] amounted to 25 nM.

`COc1ccc([C@]2(CCN(Cc3ccc(C4=CC[C@H](CN5CCN(C(=O)c6ccc7c8c6CCCn8c(=O)n7[C@H]6CCC(=O)NC6=O)CC5)CC4)cc3)CC(C)(C)C(F)(F)F)CCOC(C)(C)C2)cc1` [BF6, (3S)-3-{7-[(4-{[(4R)-4′-{[{2-[(4R)-4-(4-Methoxyphenyl)-2,2-dimethyltetrahydro-2H-pyran-4-yl]ethyl}(3,3,3-trifluoro-2,2-dimethylpropyl)amino]methyl}-2,3,4,5-tetrahydro[biphenyl]-4-yl]methyl}piperazin-1-yl)carbonyl]-2-oxo-5,6-dihydro-4H-imidazo[4,5,1-ij}quinolin-1(2H)-yl}piperidine-2,6-dione] registered a DC50 in assay [1] of 10 nM. The compound also showed a GI50 in assay [2] (Homo sapiens, NCI-H295R, 168 h) of 75 nM.

For the compound `COc1ccc([C@]2(CCN(Cc3ccc(C4=CC[C@H](C(=O)N5CCN(Cc6cc(F)c7c(c6)n(C)c(=O)n7C6CCC(=O)NC6=O)CC5)CC4)cc3)CC(C)(C)C(F)(F)F)CCOC(C)(C)C2)cc1` (stereo partly drawn) [BP6, 3-{7-Fluoro-5-[(4-{[(4R)-4′-{[{2-[(4R)-4-(4-methoxyphenyl)-2,2-dimethyltetrahydro-2H-pyran-4-yl]ethyl}(3,3,3-trifluoro-2,2-dimethylpropyl)amino]methyl}-2,3,4,5-tetrahydro[biphenyl]-4-yl]carbonyl}piperazin-1-yl)methyl]-3-methyl-2-oxo-2,3-dihydro-1H-benzimidazol-1-yl}piperidine-2,6-dione], in assay [1], the DC50 came to 12 nM. In assay [2] (Homo sapiens, NCI-H295R, 168 h), this compound returned a GI50 of 71 nM.

Take `COc1ccc([C@]2(CCN(Cc3ccc(C4=CC[C@@H](C(=O)N5CCC(Nc6ccc7c8c6CCCn8c(=O)n7C6CCC(=O)NC6=O)CC5)CC4)c(F)c3)CC(C)(C)C(F)(F)F)CCOC(C)(C)C2)cc1` (stereo partly drawn) [BL4, 3-{7-[(1-{[(4S)-2′-Fluoro-4′-{[{2-[(4R)-4-(4-methoxyphenyl)-2,2-dimethyltetrahydro-2H-pyran-4-yl]ethyl)(3,3,3-trifluoro-2,2-dimethylpropyl)amino]methyl}-2,3,4,5-tetrahydro[biphenyl]-4-yl]carbonyl}piperidin-4-yl)amino]-2-oxo-5,6-dihydro-4H-imidazo[4,5,1-ij]quinolin-1(2H)-yl}piperidine-2,6-dione]: in assay [1], the DC50 was 3.1 nM. In addition, the GI50 in assay [2] (Homo sapiens, NCI-H295R, 168 h) is 43 nM.

As to `COc1ccc([C@]2(CCN(Cc3ccc(OC4CC5(CCN(CC(=O)Nc6ccc7c(c6)n(C)c(=O)n7C6CCC(=O)NC6=O)CC5)C4)cc3)CC(C)(C)C(F)(F)F)CCOC(C)(C)C2)cc1` (stereo partly drawn) [Example AE1, N-[1-(2,6-Dioxopiperidin-3-yl)-3-methyl-2-oxo-2,3-dihydro-1H-benzimidazol-5-yl]-2-[2-(4-{[{2-[(4R)-4-(4-methoxyphenyl)-2,2-dimethyltetrahydro-2H-pyran-4-yl]ethyl}(3,3,3-trifluoro-2,2-dimethylpropyl)amino]methyl}phenoxy)-7-azaspiro[3.5]nonan-7-yl]acetamide], the DC50 in assay [1] worked out at 8.5 nM. Moreover, the GI50 in assay [2] (Homo sapiens, NCI-H295R, 168 h) is 40 nM.

In turn, `COc1ccc([C@]2(CCN(Cc3ccc(C4=CCC(CN5CCN(Cc6ccc7c(c6)n(C)c(=O)n7C6CCC(=O)NC6=O)CC5=O)CC4)cc3)CC(C)(C)C(F)(F)F)CCOC(C)(C)C2)cc1` (stereo partly drawn) [AX3, 3-[5-({4-[(4′-{[{2-[(4R)-4-(4-Methoxyphenyl)-2,2-dimethyltetrahydro-2H-pyran-4-yl]ethyl)(3,3,3-trifluoro-2,2-dimethylpropyl)amino]methyl}-2,3,4,5-tetrahydro[biphenyl]-4-yl)methyl]-3-oxopiperazin-1-yl}methyl)-3-methyl-2-oxo-2,3-dihydro-1H-benzimidazol-1-yl]piperidine-2,6-dione] returned a DC50 in assay [1] of 7.1 nM. For the same compound, the GI50 in assay [2] (Homo sapiens, NCI-H295R, 168 h) came to 61 nM.

In turn, `COc1ccc([C@]2(CCN(Cc3ccc(OC4CC5(CCN(CC(=O)Nc6cccc7c6n(C)c(=O)n7C6CCC(=O)NC6=O)CC5)C4)cc3)CC(C)(C)C(F)(F)F)CCOC(C)(C)C2)cc1` (stereo partly drawn) [Example AD1, N-[1-(2,6-Dioxopiperidin-3-yl)-3-methyl-2-oxo-2,3-dihydro-1H-benzimidazol-4-yl]-2-[2-(4-{[{2-[(4R)-4-(4-methoxyphenyl)-2,2-dimethyltetrahydro-2H-pyran-4-yl]ethyl}(3,3,3-trifluoro-2,2-dimethylpropyl)amino]methyl}phenoxy)-7-azaspiro[3.5]nonan-7-yl]acetamide] showed a DC50 in assay [1] of 6.9 nM. The compound also had a GI50 in assay [2] (Homo sapiens, NCI-H295R, 168 h) of 47 nM.
